Assay results from US20250082570A1, “COMBINATION THERAPY FOR TREATING NON-TUBERCULOUS MYCOBACTERIAL LUNG DISEASE” (priority 2021, published 2025).
Like-named read-outs stand apart in the source and are kept apart here.

Test system: M abscessus ATCC 19977 Type strain
Experiment: checkerboard minimum inhibitory concentration (MIC) assay with FICI calculation
Type: cell-based
Conditions: for MIC: 168 h; for Active Agent-Y MIC Combination: MIC of the labelled Antiinfective-Y in combination with amikacin; for Definition (interpretation of FICI) / FICI (Fractional Inhibitory Concentration Index): labelled Antiinfective-Y in combination with amikacin
[1] = Antiinfective-Y alone, M abscessus ATCC 19977, 37° C., 7 days, absorbance 595 nm, read-out: Active Agent-Y MIC Alone
[2] = read-out: Active Agent-Y MIC Alone

Row | Structure (SMILES) | MIC (amikacin alone (column 12 of the checkerboard plate run with the row's Antiinfective-Y), M abscessus ATCC 19977, 37° C., 7 days, absorbance 595 nm, read-out: Amikacin (Active Agent-X) MIC Alone) [µg/mL] | Amikacin (Active Agent-X) MIC Alone (amikacin alone (column 12 of the checkerboard plate run with the row's Antiinfective-Y), M abscessus ATCC 19977, 37° C., 7 days, absorbance 595 nm) [µg/mL] | MIC [1] [µg/mL] | Active Agent-Y MIC Combination (M abscessus ATCC 19977, 7 days) [µg/mL] | Definition (interpretation of FICI) (M abscessus ATCC 19977) | FICI (Fractional Inhibitory Concentration Index) (M abscessus ATCC 19977) | MIC [2] [µg/mL]
1 | NCC[C@H](O)C(=O)N[C@@H]1C[C@H](N)[C@@H](O[C@H]2O[C@H](CN)[C@@H](O)[C@H](O)[C@H]2O)[C@H](O)[C@H]1O[C@H]1O[C@H](CO)[C@@H](O)[C@H](N)[C@H]1O [Amikacin] | 2 | 1 |  |  |  |  | 
2 | Cn1nnc(-c2ccc(-c3ccc(N4C[C@H](CO)OC4=O)cc3F)cn2)n1 [Tedizolid] |  |  | 0.5 | 0.5 | Additive | 3.00 | 
3 | C[C@H]1COc2c(N3CCN(C)CC3)c(F)cc3c(=O)c(C(=O)O)cn1c23 [Levofloxacin] |  |  |  | 0.0625 | Synergy (<0.5) | 0.14 | 4
4 | C[C@@H](O)[C@H]1C(=O)N2C(C(=O)O)=C(SCCN=CN)C[C@H]12 [Imipenem] |  |  | 2 | 0.25 | Synergy (<0.5) | 0.38 | 
5 | CO[C@H]1/C=C/O[C@@]2(C)Oc3c(C)c(O)c4c(c3C2=O)C2=NC3(CCN(CC(C)C)CC3)NC2=C(NC(=O)/C(C)=C\C=C\[C@H](C)[C@H](O)[C@@H](C)[C@@H](O)[C@@H](C)[C@H](OC(C)=O)[C@@H]1C)C4=O [Rifabutin] |  |  | 1 | 0.0625 | Synergy (<0.5) | 0.31 | 
6 | COc1c(N2C[C@@H]3CCCN[C@@H]3C2)c(F)cc2c(=O)c(C(=O)O)cn(C3CC3)c12 [Moxifloxacin] |  |  |  | 0.125 | Synergy (<0.5) | 0.38 | 1
7 | COc1nc2ccc(Br)cc2cc1[C@@H](c1ccccc1)[C@@](O)(CCN(C)C)c1cccc2ccccc12 [Bedaquiline] |  |  |  | 0.125 | Synergy (<0.5) | 0.09 | 2
8 | CN(C)c1cc(NC(=O)CNC(C)(C)C)c(O)c2c1C[C@H]1C[C@H]3[C@H](N(C)C)C(O)=C(C(N)=O)C(=O)[C@@]3(O)C(O)=C1C2=O [Tigecycline] |  |  |  | 0.5 | Additive | 0.75 | 2
9 | C=CC1=C(C(=O)O)N2C(=O)[C@@H](NC(=O)/C(=N\O)c3csc(N)n3)[C@H]2SC1 [Cefdinir] |  |  | 8 | 0.5 | Synergy (<0.5) | 0.13 | 
10 | C[C@@H](O)[C@H]1C(=O)N2C(C(=O)O)=C(SC3CN(C4=NCCS4)C3)[C@H](C)[C@H]12 [Tebipenem] |  |  | 8 | 0.25 | Synergy (<0.5) | 0.28 | 
11 | CN[C@H](CC(C)C)C(=O)N[C@H]1C(=O)N[C@@H](CC(N)=O)C(=O)N[C@H]2C(=O)N[C@H]3C(=O)N[C@H](C(=O)N[C@H](C(=O)O)c4cc(O)cc(O)c4-c4cc3ccc4O)[C@H](O)c3ccc(c(Cl)c3)Oc3cc2cc(c3O[C@@H]2O[C@H](CO)[C@@H](O)[C@H](O)[C@H]2O[C@H]2C[C@](C)(N)[C@H](O)[C@H](C)O2)Oc2ccc(cc2Cl)[C@H]1O [Vancomycin] |  |  |  | 1 | Additive | 0.50 | 4
12 | COc1ccc2cc1Oc1ccc(cc1)C[C@H]1c3cc(c(OC)cc3CCN1C)Oc1c(OC)c(OC)cc3c1[C@H](C2)N(C)CC3 [Tetrandrine] |  |  |  | 8 | Synergy (<0.5) | 0.25 | 64
13 | CC(C)/N=c1\cc2n(-c3ccc(Cl)cc3)c3ccccc3nc-2cc1Nc1ccc(Cl)cc1 [Clofazimine] |  |  |  | 0.0625 | Synergy (<0.5) | 0.16 | 2
14 | CC[C@@H](CO)NCCN[C@@H](CC)CO [Ethambutol] |  |  |  | 4 | Synergy (<0.5) | 0.38 | 16
15 | CC[C@H]1OC(=O)[C@H](C)[C@@H](O[C@H]2C[C@@](C)(OC)[C@@H](O)[C@H](C)O2)[C@H](C)[C@@H](O[C@@H]2O[C@H](C)C[C@H](N(C)C)[C@H]2O)[C@](C)(OC)C[C@@H](C)C(=O)[C@H](C)[C@@H](O)[C@]1(C)O [Clarithromycin] |  |  | 0.5 | 0.25 | Additive | 2.50 | 
16 | C[C@@H](O)[C@H]1C(=O)N2C(C(=O)O)=C(S[C@@H]3CN[C@H](CNS(N)(=O)=O)C3)[C@H](C)[C@H]12 [Doripenem] |  |  | 4 | 0.25 | Synergy (<0.5) | 0.31 | 
17 | CC(=O)NC[C@H]1CN(c2ccc(N3CCOCC3)c(F)c2)C(=O)O1 [Linezolid] |  |  | 2 | 2 | Additive | 3.00 | 
18 | C[C@@H](O)[C@H]1C(=O)N2C(C(=O)[O-])=C(SC3Cn4cnc[n+]4C3)[C@H](C)[C@H]12 (some centres unmarked) [Biapenem] |  |  | 8 | 0.0625 | Synergy (<0.5) | 0.07 | 
19 | CO[C@H]1/C=C/O[C@@]2(C)Oc3c(C)c(O)c4c(O)c(c(/C=N/N5CCN(C)CC5)c(O)c4c3C2=O)NC(=O)/C(C)=C\C=C\[C@H](C)[C@H](O)[C@@H](C)[C@@H](O)[C@@H](C)[C@H](OC(C)=O)[C@@H]1C [Rifampicin] |  |  |  | 0.5 | Synergy (<0.5) | 0.31 | 8
